Where “and” joins values, the source holds several entries; their conditions need not be identical. Identical values can stand only once.
Test system: 966289-007-R4-J1-PDC complex spheroid viability
Test: Anticancer human tumor 966289-007-R4-J1-PDC patient-derived pancreatic adenocarcinoma cell line growth inhibition [GQUAD]
Details: for viability, T/C: stronger effect = lower value; for IC50: curve of compound
Description: DNA G-quadruplex Stabilizer Agents in Combinations in Complex Spheroids
A high-throughput screen of multi-cell type tumor spheroids was designed to identify active combinations of DNA G-quadruplex stabilizer agents and targeted small molecules. Complex spheroids include a stromal component modeled by human endothelial cells (HUVEC) and fibroblasts modeled by human mesenchymal stem cells (MSCs). The concentration ranges selected for each drug and investigational agent were based upon clinically achievable concentrations if the clinical Cmax of the agent was known.
Compounds. The drugs and investigational agents: pidnarulex (CX-5461; NSC782164), APTO-253 (NSC789042), BRACO-19 (NSC847499), peposertib (NSC802822), ceralasertib (NSC780249), elimusertib (NSC800525), camonsertib (NSC841442), AZD-1390 (NSC803789), olaparib (NSC753686), talazoparib (NSC767125), ART-558 (NSC835418), sotorasib (NSC818433), MRTX-1133 (NSC836407), SN-38 (NSC673596), topotecan (NSC609699), etoposide (NSC141540), doxorubicin (NSC123127), gemcitabine (NSC613327), 5-fluorouracil (NSC19893), paclitaxel (NSC125973), vemurafenib (NSC761431), panobinostat (NSC761190), R-306465 (JNJ-16241199; NSC773264), adavosertib (NSC754352), TP-3654 (NSC805149), carboplatin (NSC241240), KSQ-4279 (NSC840948), and staurosporine (NSC755774) were obtained from the National Cancer Institute (NCI) Developmental Therapeutics Program Chemical Repository (34). The FDA-approved anticancer drug set is available from the NCI Developmental Therapeutics Program. […] The stock solutions were prepared in dimethyl sulfoxide (DMSO, Sigma-Aldrich, St. Louis, MO, cat. D2650) at 800-fold the tested concentration and stored at -70 degrees C prior to their use. All drugs and investigational agents were tested over a range starting from a high concentration at or near the clinical Cmax and decreasing in half-log increments. If the clinical Cmax for an agent had not been determined, the highest concentration tested was 10 microM.
2.3 Cell Culture. All cells were maintained in an incubator at 37 degrees C and 5% CO2 with 95% humidity. The PDC lines were cultured according to standard operating procedures established by the NCI PDMR. All PDCs were thawed and cultured in Matrigel-coated flasks prepared with a working solution of 1X Ham's F-12 nutrient mix, without supplementation (Invitrogen, cat. 11765054), 100 U/mL penicillin-streptomycin (Invitrogen, cat. 15140122), and 2.5% Matrigel (Corning Inc., cat. 354248) for the first three passages. The 857933-349-R-J2-PDC line was cultured in 6C/Colon 1B media, which includes advanced DMEM/F-12 (Thermo Fisher Scientific, cat. 12634028), 10 mM HEPES (Thermo Fisher Scientific, cat. 15630080), 1X GlutaMAX supplement (Thermo Fisher Scientific, cat. 35050061), 0.1 mg/mL primocin (InvivoGen, cat. ant-pm-2), 10% defined fetal bovine serum, heat inactivated (HyClone Laboratories Inc., cat. SH30070.03HI), 50% L-WRN conditioned media (ATCC, cat. CRL-3276), 1.25 mM N-Acetyl-L-cysteine (Sigma-Aldrich, cat. A9165), 10 mM nicotinamide (Sigma-Aldrich, cat. N0636), 1X B-27 supplement (Thermo Fisher Scientific, cat. 17504044), 1X N-2 supplement (Thermo Fisher Scientific, cat. 17502048), 10 microM Y-27632 dihydrochloride (Tocris Bioscience, cat. 1254), and 50 ng/mL human EGF recombinant protein (Thermo Fisher Scientific, cat. PHG0311). The 485176-168-R4-J1-PDC line was cultured in Panc media, which includes all 6C/Colon 1B media components plus 100 ng/mL human FGF-10 (Thermo Fisher Scientific, cat. 100-26), 500 nM SB-431542 (Selleckchem, cat. S1067), and gastrin (Tocris, cat. 3006).
[…]
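Further: spheroids exposed to the agents for seven days before readout.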
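Wherever viability, T/C is given: percent viability relative to DMSO vehicle control wells taken as 100%.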

Row | Compound | IC50 | viability, T/C (compound 0.0316 µM) | viability, T/C (compound 0.1 µM) | viability, T/C (compound 0.316 µM) | viability, T/C (compound 1 µM) | viability, T/C (compound 3.16 µM) | viability, T/C (compound 10 µM)
1 | O=C(c1cc(Cc2n[nH]c(=O)c3ccccc23)ccc1F)N1CCN(C(=O)C2CC2)CC1 | 4.52 µM and 5.32 µM and 4.18 µM | 111% and 99.1% and 104% | 98.8% and 108% and 98.4% | 109% and 105% and 111% | 106% and 108% and 112% | 67.5% and 82.8% and 61.1% | 11.2% and 10.4% and 14.9%
2 | C=CC(=O)N1CCN(c2nc(=O)n(-c3c(C)ccnc3C(C)C)c3nc(-c4c(O)cccc4F)c(F)cc23)C(C)C1 (stereo unspecified) | > 10 µM | 102% (2×) and 99.4% | 102% and 99.7% and 98.1% | 104% and 94.3% and 95.7% | 90% and 101% and 75.8% | 97.5% and 106% and 100% | 110% and 108% and 116%
3 | CCCS(=O)(=O)Nc1ccc(F)c(C(=O)c2c[nH]c3ncc(-c4ccc(Cl)cc4)cc23)c1F | 8.17 µM and 7.89 µM and 8.2 µM | 109% and 105% and 99.4% | 102% and 96% and 99.5% | 111% (2×) and 97.8% | 110% and 106% and 114% | 114% (2×) and 108% | 37.5% and 36.5% and 38%
4 | COc1cccc2c1C(=O)c1c(O)c3c(c(O)c1C2=O)CC(O)(C(=O)CO)CC3OC1CC(N)C(O)C(C)O1 (stereo unspecified) | 0.065 µM and 0.069 µM and 0.0602 µM | 112% and 114% and 102% | 12.9% and 19.6% and 8.98% | 3.19% and 2.75% and 1.72% | 0.71% and 0.91% and 0.56% | 0.27% and 0.41% and 0.16% | 0.4% and 0.47% and 0.34%
5 | Nc1ccn(C2OC(CO)C(O)C2(F)F)c(=O)n1 (stereo unspecified) | < 0.0316 µM | 6.63% and 12% and 8.01% | 0.75% and 1.27% and 0.79% | 0.96% and 0.9% and 0.65% | 0.7% and 0.97% and 0.68% | 0.83% and 1.32% and 0.61% | 0.79% and 1.07% and 0.63%
6 | C#Cc1c(F)ccc2cc(O)cc(-c3ncc4c(N5CC6CCC(C5)N6)nc(OCC56CCCN5CC(F)C6)nc4c3F)c12 (stereo unspecified) | > 10 µM | 97.1% and 95.7% | 112% and 91.4% | 104% and 100% | 102% and 97.3% | 108% and 98.6% | 113% and 95.9%

Continued, in another order:

Row | IC50 | Compound | viability, T/C (compound 0.0316 µM) | viability, T/C (compound 0.1 µM) | viability, T/C (compound 0.316 µM) | viability, T/C (compound 1 µM) | viability, T/C (compound 3.16 µM) | viability, T/C (compound 10 µM)
7 | 2.85 µM and 4.77 µM and 6.11 µM | CC1COCCN1c1cc(C2(S(C)(=N)=O)CC2)nc(-c2ccnc3[nH]ccc23)n1 (stereo unspecified) | 105% and 101% and 96.9% | 104% and 98.3% and 105% | 109% and 99.3% and 108% | 95.2% and 103% and 108% | 45.6% and 71.7% and 117% | 6.26% and 10.7% and 7.26%
8 | 0.141 µM and 0.115 µM and 0.17 µM | CC1COCCN1c1cc(C2(O)CC3CCC(C2)O3)c2cnn(-c3ccn[nH]3)c2n1 (stereo unspecified) | 112% and 111% and 109% | 64.2% and 55% and 74.8% | 16.3% and 13.5% and 20.4% | 5.75% and 6.02% and 11.2% | 4.81% and 4.92% and 6.7% | 4.35% and 4.17% and 5.99%

Source: PubChem BioAssay AID2060488 (Molecular Pharmacology Branch, DTP, NCI, 2025)
